Results as given in patent US20260242398A1, “BENZOPYRIMIDIN-4(3H)-ONES AS PI3K INHIBITORS” (OnKure, Inc., priority 2022, published 2026).
Read-outs that look alike come from different tables or passages of the source.

How the values were obtained:
Assay type in all cases: cell-based
[1] = tested on: phosphorylation of AKT (pAKT) in T47D cells expressing mutant PI3Ka (H1047R); assay: In vitro cell pAKT (Ser473) HTRF, T47D cells; settings: inhibition of pAKT, read-out: Avg T-47D IC50
Description: (§1) In Vitro Cell pAKT: Determination of IC50 Values for Inhibition of Phosphorylation of AKT (pAKT) in T47D Cells Expressing Mutant PI3Ka (H1047R) Mutation and SKBR3 Cells Express WT PI3Ka.
(§2) T47D or SKBR3 cells were trypsinized, resuspended in culture media and seeded onto assay ready plates. T47D culture media consisted of RPMI, 10% FBS and Insulin (0.2 units/mL). SKBR3 culture media consisted of McCoy's 5a and 10% FBS. Cells were seeded at a density of 5000 cells/well and dispensed in 12.5 uL onto 384 well assay ready plates (Perkin Elmer, 6008238)). Assay ready plates had previously been stamped with 10-point dilutions of compounds of interest, as well as controls. The Echo655 is used to stamp plates at 12.5 nL of compound or DMSO. Cells were grown for 6 hour at 37° Celsius and 5% CO2. After 6 hour, 4 uL of Lysis buffer reagent was added to the plate, which was then centrifuged for 1 minute at 1000 rpm. Then the plate was incubated at room temperature for 30 minutes. After 30 minutes, 4 uL of antibody mix containing Eu Cryptate, d2 Cryptate, and detection buffer, was added to the plate. The plate was centrifuged for 1 minute at 1000 rpm and then incubated overnight at room temperature. The plate was read on an Envision plate reader using the HTRF protocol. The percentage of inhibition of AKT phosphorylation was calculated using the following formula: % Inhibition=100×(pAKTHC−pAKTSample)/(pAKTHC−pAKTLC)), where pAKTHC is obtained from cells treated with 0.1% DMSO only; pAKTLC is obtained from cells treated with 10 uM Alpelisib. The IC50 (concentration achieving 50% inhibition of pAKT) is calculated by fitting the Curve using XWfit (v5.3.1.3), equation 201: Y=Bottom+(Top−Bottom)/(1+10^((Log IC50−X)*HillSlope)).

[2] = tested on: T47D cells expressing mutant PI3Ka (H1047R); assay: In vitro cell proliferation (CellTiter-Glo, 72 hours), T47D cells; settings: inhibition of proliferation, read-out: Avg T-47D EC50
Description: (§3) In Vitro Cell Proliferation: Determination of EC50 Values for Inhibition of Proliferation in T47D Cells Expressing Mutant PI3Ka (H1047R) Mutation and SKBR3 Cells Express WT PI3Ka.
(§4) T47D or SKBR3 cells were trypsinized, resuspended in culture media and seeded onto assay ready plates. T47D culture media consisted of RPMI, 10% FBS and Insulin (0.2 units/mL). SKBR3 culture media consisted of McCoys 5a and 10% FBS. Cells were seeded at a density of 1,500 cells/well and dispensed in 50 uL onto 384 well assay ready plates (Corning, 89089-790). Assay ready plates had previously been stamped with 10-point dilutions of compounds of interest, as well as controls. The Echo655 is used to stamp plates at 40 nL of compound or DMSO. Cells were grown for 72 hours at 37° Celsius and 5% CO2. After 72 hours, cells were equilibrated at room temperature for 15 minutes. 30 uL of CellTiter-Glo reagent is added to the plate, which is then shaken for 30 minutes at temperature at 300-500 rpm. Cells are then read on an Envision plate reader. The percentage of inhibition of proliferation was calculated using the following formula: % Inhibition=100×(LumD−LumSample)/(LumD−LumInh), where D is obtained from cells treated with 0.1% DMSO only; Inh is obtained from cells treated with 10 uM Alpelisib. The effective concentration achieving 50% inhibition of proliferation (EC50) is calculated by fitting the Curve using XWfit (v5.3.1.3), equation 201: Y=Bottom+(Top−Bottom)/(1+10^((Log EC50−X)*HillSlope)).

[3] = tested on: SKBR3 cells express WT PI3Ka; assay: In vitro cell proliferation (CellTiter-Glo, 72 hours), SKBR3 cells; settings: inhibition of proliferation
Description: as §3, §4

[4] = tested on: phosphorylation of AKT (pAKT) in SKBR3 cells express WT PI3Ka; assay: In vitro cell pAKT (Ser473) HTRF, SKBR3 cells; settings: inhibition of pAKT
Description: as §1, §2

| SMILES | IC50 ([1]; 6 hour) | EC50 [2] | EC50 [3] | IC50 ([4]; Homo sapiens, SK-BR-3, 6 h) | IC50 ([4]; 6 hour) | EC50 ([3]; Homo sapiens, SK-BR-3, 72 h) | EC50 ([2]; Homo sapiens, T47D, 72 h) | IC50 ([1]; Homo sapiens, T47D, 6 h) |
| --- | --- | --- | --- | --- | --- | --- | --- | --- |
| Cc1cc(C(C)Nc2ccccc2C(=O)O)c2nc(N3Cc4ccc(C#N)cc4C3)n(C)c(=O)c2c1 (single isomer, unassigned) [Example 17, 2-((1-(2-(5-cyanoisoindolin-2-yl)-3,6-dimethyl-4-oxo-3,4-dihydroquinazolin-8-yl)ethyl)amino)benzoic acid] | 0.001 to 1 µM | 0.001 to 0.5 µM |  | > 15 µM |  | > 15 µM |  |  |
| COc1ccc2c(c1)CN(c1nc3c(C(C)Nc4ccccc4C(=O)O)cc(C)cc3c(=O)n1C)C2 (single isomer, unassigned) [Example 7, 2-((1-(2-(5-methoxyisoindolin-2-yl)-3,6-dimethyl-4-oxo-3,4-dihydroquinazolin-8-yl)ethyl)amino)benzoic acid] | 0.001 to 1 µM | 0.5 to 2 µM |  | > 15 µM |  | > 15 µM |  |  |
| COc1ccc2c(c1)CN(c1nc3c(C(C)Nc4ccccc4C(=O)O)cc(C)cc3c(=O)n1C)C2 (single isomer, unassigned) [Example 8, 2-((1-(2-(5-methoxyisoindolin-2-yl)-3,6-dimethyl-4-oxo-3,4-dihydroquinazolin-8-yl)ethyl)amino)benzoic acid] | > 15 µM | > 15 µM | > 15 µM |  | > 15 µM |  |  |  |
| Cc1cc(C(C)Nc2ccc(C#N)cc2C(=O)O)c2nc(N3CCC(C)(C)CC3)n(C)c(=O)c2c1 (single isomer, unassigned) [Example 15, 5-cyano-2-((1-(2-(4,4-dimethylpiperidin-1-yl)-3,6-dimethyl-4-oxo-3,4-dihydroquinazolin-8-yl)ethyl)amino)benzoic acid] |  |  |  |  |  | 2 to 15 µM | 2 to 15 µM |  |
| Cc1cc(C(C)Nc2cccc(F)c2C(=O)O)c2nc(N3CCC(C)(C)CC3)n(C)c(=O)c2c1 (centres unmarked) [Example 28, 2-((1-(2-(4,4-dimethylpiperidin-1-yl)-3,6-dimethyl-4-oxo-3,4-dihydroquinazolin-8-yl)ethyl)amino)-6-fluorobenzoic acid] |  |  |  | > 15 µM |  | > 15 µM | 2 to 15 µM | 0.001 to 1 µM |
| Cc1cc(C(C)Nc2ccccc2C(=O)O)c2nc(NC[C@@H](C)c3ccccc3)n(C)c(=O)c2c1 (single isomer, unassigned) [Example 48] | > 15 µM | 2 to 15 µM | 2 to 15 µM |  | > 15 µM |  |  |  |
| Cc1cc(C(C)Nc2ccccc2C(=O)O)c2nc(SCC(C)C)n(C)c(=O)c2c1 (single isomer, unassigned) [Example 39, 2-((1-(2-(isobutylthio)-3,6-dimethyl-4-oxo-3,4-dihydroquinazolin-8-yl)ethyl)amino)benzoic acid] | > 15 µM | > 15 µM |  | > 15 µM |  | > 15 µM |  |  |
| Cc1cc(C(C)Nc2ccccc2C(=O)O)c2nc(N3Cc4ccc(C(N)=O)cc4C3)n(C)c(=O)c2c1 (centres unmarked) [Example 19, 2-((1-(2-(5-carbamoylisoindolin-2-yl)-3,6-dimethyl-4-oxo-3,4-dihydroquinazolin-8-yl)ethyl)amino)benzoic acid] |  |  |  |  |  | > 15 µM | 0.5 to 2 µM |  |
| Cc1cc(C(C)Nc2ccc(C#N)cc2C(=O)O)c2nc(N3CCC(C)(C)CC3)n(C)c(=O)c2c1 (single isomer, unassigned) [Example 16, 5-cyano-2-((1-(2-(4,4-dimethylpiperidin-1-yl)-3,6-dimethyl-4-oxo-3,4-dihydroquinazolin-8-yl)ethyl)amino)benzoic acid] |  | 2 to 15 µM | 2 to 15 µM |  |  |  |  |  |

Now from value to compound:

| IC50 ([1]; 6 hour) | EC50 [2] | EC50 [3] | IC50 ([4]; Homo sapiens, SK-BR-3, 6 h) | IC50 ([4]; 6 hour) | EC50 ([3]; Homo sapiens, SK-BR-3, 72 h) | EC50 ([2]; Homo sapiens, T47D, 72 h) | IC50 ([1]; Homo sapiens, T47D, 6 h) | SMILES |
| --- | --- | --- | --- | --- | --- | --- | --- | --- |
| 0.001 to 1 µM | 0.5 to 2 µM | > 15 µM | > 15 µM |  |  |  |  | CC(Nc1ccccc1C(=O)O)c1cc(Cl)cc2c(=O)n(C)c(N3CCC(C)(C)CC3)nc12 (single isomer, unassigned) [Example 22, 2-((1-(6-chloro-2-(4,4-dimethylpiperidin-1-yl)-3-methyl-4-oxo-3,4-dihydroquinazolin-8-yl)ethyl)amino)benzoic acid] |
| > 15 µM | 2 to 15 µM | > 15 µM |  | > 15 µM |  |  |  | Cc1cc(C(C)Nc2ccccc2C(=O)O)c2nc(N3CCCC(C)(C)C3)n(C)c(=O)c2c1 (single isomer, unassigned) [Example 4, 2-((1-(2-(3,3-dimethylpiperidin-1-yl)-3,6-dimethyl-4-oxo-3,4-dihydroquinazolin-8-yl)ethyl)amino)benzoic acid] |
|  |  |  | > 15 µM |  | 2 to 15 µM | 2 to 15 µM | > 15 µM | Cc1cc(C(C)Nc2ccccc2C(=O)O)c2nc(SCc3ccc(Cl)c(OC(F)(F)F)c3)n(C)c(=O)c2c1 (single isomer, unassigned) [Example 31, 2-((1-(2-((4-chloro-3-(trifluoromethoxy)benzyl)thio)-3,6-dimethyl-4-oxo-3,4-dihydroquinazolin-8-yl)ethyl)amino)benzoic acid] |
| > 15 µM | 2 to 15 µM | > 15 µM |  | > 15 µM |  |  |  | Cc1cc(C(C)Nc2ccccc2C(=O)O)c2nc(N3CCC(C)(C)CC3)n(C3CC3)c(=O)c2c1 (single isomer, unassigned) [Example 50, 2-((1-(3-cyclopropyl-2-(4,4-dimethylpiperidin-1-yl)-6-methyl-4-oxo-3,4-dihydroquinazolin-8-yl)ethyl)amino)benzoic acid] |
| > 15 µM | > 15 µM | > 15 µM |  | > 15 µM |  |  |  | Cc1cc2c(=O)n(C)c(N3CCN(CC(F)(F)F)CC3)nc2c(C(C)Nc2ccccc2C(=O)O)c1F (single isomer, unassigned) [Example 21, 2-((1-(7-fluoro-3,6-dimethyl-4-oxo-2-(4-(2,2,2-trifluoroethyl)piperazin-1-yl)-3,4-dihydroquinazolin-8-yl)ethyl)amino)benzoic acid] |
| 1 to 5 µM |  | 2 to 15 µM | > 15 µM |  |  | 2 to 15 µM |  | Cc1cc(C(C)Nc2ccccc2C(=O)O)c2nc(N3CCC(C)(C)CC3)n(C3CC3)c(=O)c2c1 (single isomer, unassigned) [Example 49, 2-((1-(3-cyclopropyl-2-(4,4-dimethylpiperidin-1-yl)-6-methyl-4-oxo-3,4-dihydroquinazolin-8-yl)ethyl)amino)benzoic acid] |
| 0.001 to 1 µM | 0.001 to 0.5 µM |  | > 15 µM |  | 2 to 15 µM |  |  | CC(Nc1ccc(F)cc1C(=O)O)c1cc(Cl)cc2c(=O)n(C)c(N3CCN(CC(F)(F)F)CC3)nc12 (single isomer, unassigned) [Example 24, 2-((1-(6-chloro-3-methyl-4-oxo-2-(4-(2,2,2-trifluoroethyl)piperazin-1-yl)-3,4-dihydroquinazolin-8-yl)ethyl)amino)-5-fluorobenzoic acid] |
| > 15 µM | > 15 µM | > 15 µM |  | > 15 µM |  |  |  | CC(Nc1ccccc1C(=O)O)c1cc(Cl)cc2c(=O)n(C)c(N3CCN(CC(F)(F)F)CC3)nc12 (single isomer, unassigned) [Example 27, 2-((1-(6-chloro-3-methyl-4-oxo-2-(4-(2,2,2-trifluoroethyl)piperazin-1-yl)-3,4-dihydroquinazolin-8-yl)ethyl)amino)benzoic acid] |
